Our source for the IC50 values is patent publication US11286268B1, “EIF4E-inhibiting compounds and methods” (EFFECTOR THERAPEUTICS, INC., priority 2019, dated 2022).

Where two headings read alike, the source gives them in different places. Where only a bound is given, the exact number is not on record here.

This assay addresses recombinant eIF4E (Homo sapiens (Human), UniProt P06730). The assay can be described thus: Fluorescence polarization competition assay for eIF4E binding potency. The essentials:
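IC50 values reflect 50% displacement of 20 nM EDA-m7GDP-ATTO-550 from 75 nM eIF4E, measured by fluorescence polarization after 30 min at room temperature. Buffer: 20 mM Tris pH 7.5, 100 mM NaCl, 1 mM DTT, 0.02% Tween-20; 1% DMSO.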
Background: Fluorescence polarisation rises when a labelled molecule tumbles more slowly, as on binding a larger partner.

Where [1] appears, read: fluorescence polarization competition, 75 nM recombinant eIF4E, 20 nM EDA-m7GDP-ATTO-550, IC50 class, read-out: elF4E FP.
The mark [2] stands for this setting: inhibition of eIF4E/EDA-m7GDP-ATTO-550 binding by 50%, Table 4B calculated values, read-out: IC50.
The mark [3] stands for this setting: inhibition of eIF4E/EDA-m7GDP-ATTO-550 binding, calculated IC50 values, Table 4B, read-out: IC50.

Chain of recombinant eIF4E (P06730 whole entry): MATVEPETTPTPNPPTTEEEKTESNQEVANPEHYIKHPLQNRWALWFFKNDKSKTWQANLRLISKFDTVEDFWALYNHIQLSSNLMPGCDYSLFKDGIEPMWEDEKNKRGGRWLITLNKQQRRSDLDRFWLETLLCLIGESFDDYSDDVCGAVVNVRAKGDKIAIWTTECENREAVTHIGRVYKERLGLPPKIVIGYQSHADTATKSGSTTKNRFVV

As for `CCN(c1ncc2nc(C)n(CC#Cc3ccc(Cl)cc3-c3ccnc4c(C(=O)O)csc34)c(=O)c2c1C#N)C1CCN(CC(C)(F)F)CC1` [compound 1177], the IC50 is, setting by setting: under setting [1], less than 50 nM; under setting [2], 34.2 nM.

In the case of `C#Cc1c(C(=O)O)cccc1-c1cc(Cl)ccc1OCCn1c(C(F)F)nc2cccc(C#N)c2c1=O` [compound 165], the IC50 was 50 to 1000 nM under setting [1] and 106 nM under setting [2].

As to `Cc1cc(-c2cc(Cl)ccc2OCCn2c(C)nc3cc(C(F)(F)F)c(-c4nn(C)cc4C)c(C#N)c3c2=O)c2scc(C(=O)O)c2n1` [compound 1027], the IC50 was less than 50 nM under setting [1] and 31.5 nM under setting [2].

Take `Cc1cc(-c2cc(Cl)ccc2OCCn2c(C)nc3c(F)cc(C(F)F)c(C#N)c3c2=O)c2scc(S(=O)(=O)O)c2n1` [compound 488]: the IC50 under setting [1] is less than 50 nM.

With `Cc1nc2cnc(N(C)C3CCN([C@H]4C[C@@H](OC(F)(F)F)C4)CC3)c(C#N)c2c(=O)n1CC#Cc1ccc(Cl)cc1-c1ccnc2c(C(=O)NS(=O)(=O)c3cccnc3)csc12` [compound 1774], under setting [3], the IC50 is 45 nM.

On to `Cc1ccccc1S(=O)(=O)NC(=O)c1csc2c(-c3cc(Cl)ccc3C#CCn3c(C)nc4cnc(N(C)C5CCN(CC(F)(F)F)CC5)c(C#N)c4c3=O)ccnc12` [compound 1549], for which the IC50 under setting [3] was 26.2 nM.

Take `Cc1nc2cnc(N(C)C3CCN(CC(F)(F)C(C)(F)F)CC3)c(C#N)c2c(=O)n1CC#Cc1ccc(Cl)cc1-c1ccnc2c(C(=O)O)csc12` [compound 1107]: the IC50 under setting [1] is less than 50 nM and the IC50 under setting [2] is 10.5 nM.

On to `O=C(O)c1cccc(-c2cc(Cl)ccc2OCCn2cnc3ccncc3c2=O)c1` [compound 13], for which the IC50 reads like this: under setting [1], greater than 1000 nM; under setting [2], 1070 nM.

`Cc1cc(-c2cc(Cl)ccc2OCCn2c(C)nc3cc(C(F)(F)F)c(CN(C)C)c(C#N)c3c2=O)c2scc(C(=O)NS(C)(=O)=O)c2n1` [compound 568]: the IC50 by setting is: under setting [1], less than 50 nM; under setting [2], 14.1 nM.

Regarding `Cc1nc2cnc(N(C)C3COC3)c(C#N)c2c(=O)n1CC#Cc1ccc(Cl)cc1-c1ccnc2c(C(=O)O)csc12` [compound 1534], the IC50 under setting [3] is 15.8 nM.

As for `Cc1nc2cc(C(F)(F)F)c(CN3CCCCC3)c(C#N)c2c(=O)n1CCOc1ccc(Cl)cc1-c1ccnc2c(C(=O)O)csc12` [compound 528], the IC50 was less than 50 nM under setting [1] and 27.1 nM under setting [2].

In the case of `Cc1nc2c(F)cc(C(F)F)c(C#N)c2c(=O)n1CCOc1ccc(Cl)cc1-c1ccnc2c(C(=O)O)csc12` [compound 1944], the IC50 under setting [3] is 24.9 nM.

For the compound `CS(=O)(=O)c1cc(C#N)c2c(=O)n(CCOc3ccc(Cl)cc3-c3cccc(C(=O)O)c3)c(CF)nc2c1` [compound 233], the IC50 by setting is: under setting [1], less than 50 nM; under setting [2], 28.9 nM.

As for `Cc1nc2cnc(C3CCC(N(C)CC(F)(F)F)C3)c(C#N)c2c(=O)n1CCOc1ccc(Cl)cc1-c1ccnc2c(C(=O)O)csc12` (stereo not drawn) [compound 1427], the IC50 under setting [3] was 14.3 nM.

Take `Cc1nc2cnc(N(C)C3CCN(CC(F)F)CC3)c(C#N)c2c(=O)n1CC#Cc1ccc(Cl)cc1-c1ccnc2c(C(=O)O)csc12` [compound 1112]: the IC50 runs as follows: under setting [1], less than 50 nM; under setting [2], 19.9 nM.

As for `Cc1cc(-c2cc(Cl)ccc2OCCn2c(C)nc3cc(C(F)(F)F)c(-c4ccccn4)nc3c2=O)c2scc(C(=O)O)c2n1` [compound 462], the IC50 runs as follows: under setting [1], less than 50 nM; under setting [2], 10.5 nM.

In the case of `CCc1cc(-c2cc(Cl)ccc2OCCn2c(C)nc3cnc(N4CCC(O)C4)c(C#N)c3c2=O)c2scc(C(=O)O)c2n1` (stereo not drawn) [compound 1235], the IC50 under setting [1] is less than 50 nM and the IC50 under setting [3] is 6.32 nM.

On to `Cc1cc(-c2cc(Cl)ccc2OCCn2c(C)nc3cc(C(F)(F)F)c(-c4nc(C(F)F)ccc4F)c(C#N)c3c2=O)c2scc(C(=O)O)c2n1` [compound 995], for which the IC50 is less than 50 nM under setting [1] and 15.7 nM under setting [2].

For `Cc1nc2cc(C(F)(F)F)cc(C#N)c2c(=O)n1CCOc1ccc(Cl)cc1-c1cccc2c(C(=O)O)csc12` [compound 402], the IC50 is, setting by setting: under setting [1], 50 to 1000 nM; under setting [2], 124 nM.

With `Cc1cc(-c2cc(Cl)ccc2OCCn2c(C)nc3c(CN4CCN(C)CC4)c(C(F)(F)F)cc(C#N)c3c2=O)c2scc(C(=O)O)c2n1` [compound 483], the IC50 reads like this: under setting [1], less than 50 nM; under setting [2], 42.1 nM.

`Cc1nc2cnc(C3=CCN(CC(F)F)CC3)c(C#N)c2c(=O)n1CC#Cc1ccc(Cl)cc1-c1ccnc2c(C(=O)O)csc12` [compound 1463]: under setting [3], the IC50 is 22.9 nM.

Take `Cc1nc2cnc(N(C)C3CCN(C4(C)CC4)CC3)c(C#N)c2c(=O)n1CC#Cc1ccc(Cl)cc1-c1ccnc2c(C(=O)O)csc12` [compound 1524]: the IC50 under setting [3] is 12.5 nM.

Regarding `Cc1nc2ccc(OC(F)F)c(C#N)c2c(=O)n1CCOc1ccc(Cl)cc1-c1ccnc2c(C(=O)O)csc12` [compound 236], the IC50 under setting [1] was less than 50 nM and the IC50 under setting [2] was 20.3 nM.

Turning to `Cc1nc2ccc(S(=O)(=O)N3CCC(F)(F)CC3)c(C#N)c2c(=O)n1CCOc1ccc(Cl)cc1-c1ccnc2c(C(=O)O)csc12` [compound 282], the IC50 reads like this: under setting [1], less than 50 nM; under setting [2], 17.1 nM.

As for `Cc1c(CCOc2ccc(Cl)cc2-c2ccnc3c(C(=O)O)csc23)c(=O)c2c(C#N)cc(C(F)(F)F)cc2n1C` [compound 180], the IC50 is less than 50 nM under setting [1] and 47.7 nM under setting [2].

For the compound `Cc1cc(-c2c(C(F)F)cc3nc(C)n(CCOc4ccc(Cl)cc4-c4cc(C)nc5c(C(=O)O)csc45)c(=O)c3c2C#N)cc(C)n1` [compound 1385], the IC50 under setting [3] is 7.24 nM.

As to `Cc1c(CC2CCOCC2)nc(C#N)c2nc(C)n(CC#Cc3ccc(Cl)cc3-c3ccnc4c(C(=O)O)csc34)c(=O)c12` [compound 1965], the IC50 under setting [3] is 86.4 nM.

Take `N#Cc1cncc2ncn(CCOc3ccc(Cl)cc3-c3cccc(C(=O)O)c3)c(=O)c12` [compound 34]: the IC50 is 50 to 1000 nM under setting [1] and 88.5 nM under setting [2].

On to `COCCN1CCN(c2c(C(F)(F)F)cc3nc(C)n(CCOc4ccc(Cl)cc4-c4ccnc5c(C(=O)O)csc45)c(=O)c3c2C#N)CC1` [compound 1243], for which the IC50 was less than 50 nM under setting [1] and 5.55 nM under setting [3].

In the case of `N#Cc1cc2c(=O)n(CCOc3ccc(Cl)cc3-c3cc(C(=O)O)c4ncccc4c3)cnc2cn1` [compound 100], the IC50 under setting [1] is greater than 1000 nM and the IC50 under setting [2] is 3480 nM.

Consider `Cc1nc2cc(C(F)(F)F)c(N3CC4(C3)CN(C3CC3)C4)c(C#N)c2c(=O)n1CC#Cc1ccc(Cl)cc1-c1ccnc2c(C(=O)O)csc12` [compound 1570], for which the IC50 under setting [3] is 22.9 nM.

In the case of `Cc1cc(-c2cc(Cl)ccc2OCCn2c(C)nc3c(C)nc(-c4c(C)cccc4F)c(C#N)c3c2=O)c2scc(C(=O)O)c2n1` [compound 871], under setting [1], the IC50 is less than 50 nM.

With `Cc1cc(-c2cc(Cl)ccc2OCCn2c(C)nc3cc(C(F)(F)F)c(N4CCN(C)CC4)nc3c2=O)c2scc(C(=O)O)c2n1` [compound 676], the IC50 reads like this: under setting [1], less than 50 nM; under setting [2], 6.22 nM.

Take `Cc1nc2cnc(N(C)C3CCN(C4CC(F)(F)C4)CC3)c(C#N)c2c(=O)n1CC#Cc1ccc(Cl)cc1-c1ccnc2c(C(=O)NS(=O)(=O)c3ccccn3)csc12` [compound 1830]: the IC50 under setting [3] was 8.06 nM.

For the compound `Cc1nc2cc(C(F)(F)F)cc(C#N)c2c(=O)n1CCOc1ccc(Cl)cc1-c1ccnc2c(C(=O)O)c(Cl)sc12` [compound 266], the IC50 was less than 50 nM under setting [1] and 26.6 nM under setting [2].
